Columns and labels:
[1] = tested on: HepG2; assay: drug sensitivity score (DSS) for viability; higher = more toxic; extreme values may be limits of the assay; details: 72 h
[2] = tested on: Vero E6; assay: as above; details: 72 h
[3] = tested on: Caco-2; assay: as above; details: 72 h
[4] = tested on: Calu-3; assay: as above; details: 72 h
[5] = tested on: A549-ACE2 infected with SARS-CoV-2; assay: SARS-CoV-2 infection rate relative to DMSO; higher = more infection; details: 24 h
[6] = tested on: A549-ACE2; assay: phospholipidosis EC50; higher = less potent phospholipidosis inducer
[7] = tested on: A549-ACE2; assay: drug-induced phospholipidosis relative to tamoxifen; higher = more phospholipidosis
[8] = tested on: HepG2; assay: cell viability relative to DMSO; higher = less toxic; details: 72 h
[9] = tested on: Vero E6; assay: as above; details: 72 h
[10] = tested on: Caco-2; assay: as above; details: 72 h
[11] = tested on: Calu-3; assay: as above; details: 72 h
[12] = tested on: A549-ACE2 infected with SARS-CoV-2; assay: cell count relative to DMSO; higher = less toxic; details: 24 h
[13] = tested on: A549-ACE2 infected with SARS-CoV-2; assay: morphology score (similarity to uninfected cells); higher = more like uninfected cells; details: 24 h
[14] = tested on: Vero E6; assay: relative viability EC50 (midpoint between 100% and the lowest measured viability); higher = less toxic; details: 72 h
[15] = tested on: Caco-2; assay: as above; details: 72 h
[16] = tested on: Calu-3; assay: as above; details: 72 h
[17] = tested on: HepG2; assay: as above; details: 72 h
[18] = tested on: U2OS; assay: drug sensitivity score (DSS) for viability; higher = more toxic; extreme values may be limits of the assay; details: 72 h
[19] = tested on: U2OS; assay: cell viability relative to DMSO; higher = less toxic; details: 72 h
[20] = tested on: U2OS; assay: relative viability EC50 (midpoint between 100% and the lowest measured viability); higher = less toxic; details: 72 h

Nc1ccc(C(=O)Nc2cccc(-c3nc(N4CCOCC4)c4oc5ncccc5c4n3)c2)cn1
Details | drug sensitivity score | relative viability EC50 [µM]
[1] | 10.9 | –
[2] | 0 | –
[3] | 1.8 | –
[4] | 0 | –
[14] | – | > 10
[15] | – | > 10
[16] | – | > 10

Details | SARS-CoV-2 infection rate [%] | cell count [%] | cell viability [%] | morphology score | phospholipidosis EC50 [µM]
[5], 0.3 µM | 90 | – | – | – | –
[5], 3 µM | 47 | – | – | – | –
[5], 10 µM | 63 | – | – | – | –
[5], 30 µM | 110 | – | – | – | –
[6], 24 h | – | – | – | – | 6.01
[6], 48 h | – | – | – | – | 7.56
[6], 72 h | – | – | – | – | 4.36
[8], 1 nM | – | – | 109 | – | –
[8], 10 nM | – | – | 99.6 | – | –
[8], 100 nM | – | – | 88.3 | – | –
[8], 1000 nM | – | – | 50.5 | – | –
[8], 10000 nM | – | – | 61.6 | – | –
[9], 1 nM | – | – | 99.9 | – | –
[9], 10 nM | – | – | 100 | – | –
[9], 100 nM | – | – | 96.4 | – | –
[9], 1000 nM | – | – | 95.9 | – | –
[9], 10000 nM | – | – | 91.9 | – | –
[10], 1 nM | – | – | 95.4 | – | –
[10], 10 nM | – | – | 97 | – | –
[10], 100 nM | – | – | 101 | – | –
[10], 1000 nM | – | – | 87.1 | – | –
[10], 10000 nM | – | – | 80 | – | –
[11], 1 nM | – | – | 101 | – | –
[11], 10 nM | – | – | 96.1 | – | –
[11], 100 nM | – | – | 100 | – | –
[11], 1000 nM | – | – | 96.5 | – | –
[11], 10000 nM | – | – | 94.8 | – | –
[12], 0.3 µM | – | 100 | – | – | –
[12], 3 µM | – | 102 | – | – | –
[12], 10 µM | – | 101 | – | – | –
[12], 30 µM | – | 78 | – | – | –
[13], 0.3 µM | – | – | – | 0.31 | –
[13], 3 µM | – | – | – | 0.45 | –
[13], 10 µM | – | – | – | 0.08 | –
[13], 30 µM | – | – | – | -0.12 | –

drug-induced phospholipidosis [%], [7]
Details | 0.3 µM | 0.833333 µM | 3.33333 µM | 6.66667 µM | 10 µM | 30 µM
24 h | 4.2 | 16.4 | 72 | 146 | 132 | 202
48 h | 8.45 | 22.8 | 79.6 | 121 | 135 | 188
72 h | 8 | 24.5 | 107 | 162 | – | 231

O=c1oc(-c2ccc(C(F)(F)F)cc2)nn1Cc1cc(Cl)ccc1O
Details | drug sensitivity score | relative viability EC50 [µM]
[1] | 0 | –
[3] | 0 | –
[15] | – | > 10
[17] | – | > 10

Details | SARS-CoV-2 infection rate [%] | cell count [%] | cell viability [%] | morphology score
[5], 0.3 µM | 84 | – | – | –
[5], 3 µM | 102 | – | – | –
[5], 10 µM | 99 | – | – | –
[5], 30 µM | 68 | – | – | –
[8], 1 nM | – | – | 105 | –
[8], 10 nM | – | – | 107 | –
[8], 100 nM | – | – | 99.7 | –
[8], 1000 nM | – | – | 99.2 | –
[8], 10000 nM | – | – | 97.3 | –
[10], 1 nM | – | – | 109 | –
[10], 10 nM | – | – | 94.7 | –
[10], 100 nM | – | – | 101 | –
[10], 1000 nM | – | – | 99.2 | –
[10], 10000 nM | – | – | 92.6 | –
[12], 0.3 µM | – | 101 | – | –
[12], 3 µM | – | 102 | – | –
[12], 10 µM | – | 80 | – | –
[12], 30 µM | – | 65 | – | –
[13], 0.3 µM | – | – | – | 0.38
[13], 3 µM | – | – | – | -0.01
[13], 10 µM | – | – | – | 0.05
[13], 30 µM | – | – | – | 0.43

drug-induced phospholipidosis [%], [7]
Details | 0.3 µM | 0.833333 µM | 3.33333 µM | 6.66667 µM | 10 µM | 30 µM
24 h | -1 | -1.2 | -2.36 | -1.21 | 0.96 | 6.42
48 h | 3.5 | -0.73 | 0.6 | 1.96 | 2.52 | 8.32
72 h | 4.07 | 0.196 | 1.24 | 1.18 | 2.49 | 10.1

O=[N+]([O-])/C=C/c1ccc2c(c1)OCO2 [3,4-methylenedioxy-beta-nitrostyrene]
Details | drug sensitivity score | relative viability EC50 [µM]
[1] | 0 | –
[2] | 0.6 | –
[3] | 0.9 | –
[4] | 0 | –
[14] | – | > 10
[16] | – | > 10
[17] | – | > 10
[18] | 3 | –
[20] | – | 3.2

Details | SARS-CoV-2 infection rate, [5] [%] | cell count, [12] [%] | cell viability, [8] [%] | cell viability, [9] [%] | cell viability, [10] [%] | cell viability, [11] [%] | cell viability, [19] [%] | morphology score, [13]
1 nM | – | – | 115 | 103 | 94.9 | 101 | 99.2 | –
10 nM | – | – | 97.9 | 101 | 107 | 105 | 97.5 | –
100 nM | – | – | 101 | 99.9 | 93.8 | 101 | 97.1 | –
0.3 µM | 95 | 106 | – | – | – | – | – | 0.14
1000 nM | – | – | 95.9 | 96.9 | 104 | 100 | 100 | –
3 µM | 107 | 97 | – | – | – | – | – | 0.21
10 µM | 39 | 49 | – | – | – | – | – | 0.48
10000 nM | – | – | 91.3 | 84.3 | 72.3 | 95.5 | 43.7 | –
30 µM | 36 | 16 | – | – | – | – | – | 0.16

drug-induced phospholipidosis [%], [7]
Details | 0.3 µM | 0.833333 µM | 3.33333 µM | 6.66667 µM | 30 µM
24 h | 1.47 | -0.82 | 0.27 | 3.08 | -3.87
48 h | -0.23 | -2.22 | -2.44 | -0.19 | –
72 h | -0.171 | -1.69 | -1.41 | -0.796 | –

Reference: the supplement of paper PMC13380429
